Source: ChEMBL document CHEMBL1201862, “PubChem BioAssay data set” (2004)
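In this assay, cells in 96-well plates receive the compound at five concentrations for 48 hours. Endpoints are linearly interpolated between the surrounding concentrations. GI50 = concentration required for 50% inhibition of growth.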 The source made the active and inactive calls. Cut-off read from the data, not from the text of the source: active = GI50 up to about 1.1 µM and inactive = higher.

What was measured:
Test in all cases: NCI tumour cell line growth inhibition, 48 h
[1] = test system: 786-0
[2] = test system: A549
[3] = test system: ACHN
[4] = test system: CAKI-1
[5] = test system: CCRF-CEM
[6] = test system: COLO 205
[7] = test system: DLD-1
[8] = test system: DMS-273
[9] = test system: EKVX
[10] = test system: HCC 2998
[11] = test system: HCT-116
[12] = test system: HCT-15
[13] = test system: HL-60
[14] = test system: HOP-18
[15] = test system: HOP-62
[16] = test system: HT-29
[17] = test system: IGROV-1
[18] = test system: K562
[19] = test system: KM-20L2
[20] = test system: KM12
[21] = test system: LOX IMVI
[22] = test system: LXFL 529
[23] = test system: M14
[24] = test system: M19-MEL
[25] = test system: MOLT-4
[26] = test system: Malme-3M
[27] = test system: NCI-H226
[28] = test system: NCI-H23
[29] = test system: NCI-H460
[30] = test system: NCI-H522
[31] = test system: OVCAR-3
[32] = test system: OVCAR-4
[33] = test system: OVCAR-5
[34] = test system: OVCAR-8
[35] = test system: RPMI-8226
[36] = test system: RXF 393
[37] = test system: SF-268
[38] = test system: SF-295
[39] = test system: SK-MEL-28
[40] = test system: SK-MEL-2
[41] = test system: SK-MEL-5
[42] = test system: SK-OV-3
[43] = test system: SN12C
[44] = test system: SNB-19
[45] = test system: SNB-75
[46] = test system: SNB-78
[47] = test system: SR
[48] = test system: SW-620
[49] = test system: TK-10
[50] = test system: U-251
[51] = test system: UACC-257
[52] = test system: UACC-62
[53] = test system: UO-31
[54] = test system: XF498
[55] = test system: DMS-114
[56] = test system: SF-539

`O=C1C(Cl)C(c2cc(Br)cc(Br)c2O)N1n1cnc2ccccc2c1=O` (configuration not stated) was tested, and the GI50 [1] was 26.2 µM (inactive), the GI50 [2] was 65.9 µM (inactive) and the GI50 [3] was 28.2 µM (inactive). The GI50 [4] was 17.7 µM (inactive), the GI50 [5] was 9.29 µM (inactive) and the GI50 [6] was 29.2 µM (inactive). The GI50 [7] was 8.87 µM (inactive), the GI50 [8] was 29.4 µM (inactive) and the GI50 [9] was 25.1 µM (inactive). For the same molecule, the GI50 [10] was 30.2 µM (inactive), the GI50 [11] was 18.9 µM (inactive) and the GI50 [12] was 20.3 µM. The GI50 [13] was 16.8 µM (inactive), the GI50 [14] was 24.5 µM (inactive) and the GI50 [15] was 24.3 µM (inactive). For the same molecule, the GI50 [16] was 36.1 µM (inactive), the GI50 [17] was 23.4 µM (inactive) and the GI50 [18] was 26.2 µM (inactive). The GI50 [19] was 32.5 µM (inactive), the GI50 [20] was 25.1 µM (inactive) and the GI50 [21] was 14.1 µM (inactive). For the same molecule, the GI50 [22] was 21 µM (inactive), the GI50 [23] was 18.3 µM (inactive) and the GI50 [24] was 16.7 µM (inactive). For the same molecule, the GI50 [25] was 7.46 µM (inactive), the GI50 [26] was 19 µM (inactive) and the GI50 [27] was 21.9 µM (inactive). The GI50 [28] was 23.8 µM (inactive), the GI50 [29] was 12.6 µM (inactive) and the GI50 [30] was 19 µM (inactive). The GI50 [31] was 22.3 µM (inactive), the GI50 [32] was 9.55 µM (inactive) and the GI50 [33] was 19.4 µM (inactive). The GI50 [34] was 24.7 µM (inactive), the GI50 [35] was 12.6 µM (inactive) and the GI50 [36] was 21 µM (inactive). For the same molecule, the GI50 [37] was 10.7 µM (inactive), the GI50 [38] was 6.76 µM (inactive) and the GI50 [39] was 19.6 µM (inactive). For the same molecule, the GI50 [40] was 21.1 µM (inactive), the GI50 [41] was 18.8 µM (inactive) and the GI50 [42] was 13.6 µM (inactive). For the same molecule, the GI50 [43] was 27.5 µM (inactive), the GI50 [44] was 30.3 µM (inactive) and the GI50 [45] was 25.3 µM (inactive). The GI50 [46] was 20.7 µM (inactive), the GI50 [47] was 7.76 µM (inactive) and the GI50 [48] was 35.8 µM (inactive). The GI50 [49] was 46.5 µM (inactive), the GI50 [50] was 6.35 µM (inactive) and the GI50 [51] was 18.7 µM (inactive). The GI50 [52] was 19.2 µM (inactive), the GI50 [53] was 20.7 µM (inactive) and the GI50 [54] was 23.3 µM (inactive).

In the case of `CCOC(=O)C[C@@]12CCCNC1(C)CCc1ccccc12` (some centres not stated), the GI50 [1] is reported as > 100 µM (inactive), the GI50 [2] is reported as > 100 µM (inactive) and the GI50 [3] is reported as > 100 µM (inactive). For the same molecule, the GI50 [5] was > 100 µM (inactive), the GI50 [6] was > 100 µM (inactive) and the GI50 [7] was > 100 µM (inactive). The GI50 [55] was > 100 µM (inactive), the GI50 [8] was > 100 µM (inactive) and the GI50 [9] was > 100 µM (inactive). The GI50 [11] was > 100 µM (inactive), the GI50 [12] was greater than 100 µM and the GI50 [13] was > 100 µM (inactive). The GI50 [14] was 63.2 µM (inactive), the GI50 [15] was > 100 µM (inactive) and the GI50 [16] was > 100 µM (inactive). For the same molecule, the GI50 [17] was > 100 µM (inactive), the GI50 [18] was > 100 µM (inactive) and the GI50 [19] was > 100 µM (inactive). For the same molecule, the GI50 [20] was > 100 µM (inactive), the GI50 [21] was > 100 µM (inactive) and the GI50 [23] was > 100 µM (inactive). The GI50 [24] was > 100 µM (inactive), the GI50 [25] was > 100 µM (inactive) and the GI50 [26] was > 100 µM (inactive). The GI50 [27] was > 100 µM (inactive), the GI50 [29] was > 100 µM (inactive) and the GI50 [31] was > 100 µM (inactive). The GI50 [34] was > 100 µM (inactive), the GI50 [35] was > 100 µM (inactive) and the GI50 [38] was 52.5 µM (inactive). The GI50 [56] was > 100 µM (inactive), the GI50 [40] was > 100 µM (inactive) and the GI50 [41] was > 100 µM (inactive). For the same molecule, the GI50 [42] was > 100 µM (inactive), the GI50 [43] was > 100 µM (inactive) and the GI50 [44] was > 100 µM (inactive). For the same molecule, the GI50 [48] was > 100 µM (inactive), the GI50 [49] was > 100 µM (inactive) and the GI50 [50] was > 100 µM (inactive). The GI50 [51] was > 100 µM (inactive), the GI50 [52] was > 100 µM (inactive) and the GI50 [53] was > 100 µM (inactive). For the same molecule, the GI50 [54] was > 100 µM (inactive).
